# Reference: ChEMBL document CHEMBL1158425 (Bioorg Med Chem Lett, 2009)
# Experiments:
# A2780 [1] = test: Growth inhibition of human adriamycin and doxorubicin-resistant A2780 cells after 72 hrs; assay type: functional, cell-based; conditions: A2780, 72 h
# [2] = Growth inhibition of human paclitaxel-resistant A2780TC1 cells overexpressing class 3 beta-tubulin after 72 hrs; assay type: functional, cell-based; conditions: A2780TC1, 72 h
# A2780 [3] = test: Growth inhibition of human wild type A2780 cells after 72 hrs; assay type: functional, cell-based; conditions: A2780, 72 h
# A2780 [4] = test: Ratio of IC50 for drug to IC50 for paclitaxel against human adriamycin and doxorubicin-resistant A2780 cells; assay type: functional
# A2780 [5] = test: Resistant factor, IC50 for human paclitaxel-resistant A2780TC1 cells overexpressing class 3 beta-tubulin to IC50 for human wild type A2780 cells; assay type: functional, cell-based
# A2780 [6] = test: Ratio of IC50 for drug to IC50 for IDN 5390 against human adriamycin and doxorubicin-resistant A2780 cells; assay type: functional
# [7] = Ratio of IC50 for drug to IC50 for IDN 5390 against human paclitaxel-resistant A2780TC3 cells overexpressing class 3 beta-tubulin; assay type: functional
# A2780 [8] = test: Growth inhibition of human topotecan-resistant A2780 cells after 72 hrs; assay type: functional, cell-based; conditions: A2780, 72 h
# [9] = Ratio of IC50 for drug to IC50 for paclitaxel against human paclitaxel-resistant A2780TC1 cells overexpressing class 3 beta-tubulin; assay type: functional
# [10] = Ratio of IC50 for drug to IC50 for paclitaxel against human paclitaxel-resistant A2780TC3 cells overexpressing class 3 beta-tubulin; assay type: functional
# A2780 [11] = test: Growth inhibition of human cisplatin-resistant A2780 cells after 72 hrs; assay type: functional, cell-based; conditions: A2780, 72 h
# [12] = Growth inhibition of human paclitaxel-resistant A2780TC3 cells overexpressing class 3 beta-tubulin after 72 hrs; assay type: functional, cell-based; conditions: A2780TC3, 72 h
# A2780 [13] = test: Resistant factor, IC50 for human paclitaxel-resistant A2780TC3 cells overexpressing class 3 beta-tubulin to IC50 for human wild type A2780 cells; assay type: functional
# [14] = Ratio of IC50 for IDN 5390 to IC50 for paclitaxel against human paclitaxel-resistant A2780TC3 cells overexpressing class 3 beta-tubulin; assay type: functional
Structure (SMILES),IC50 (A2780 [1]),IC50 (A2780 [3]),IC50 (A2780 [8]),IC50 (A2780 [11]),IC50 [2],Ratio IC50 (A2780 [4]),Ratio IC50 (A2780 [5]),Ratio IC50 (A2780 [6]),Ratio IC50 [7],Ratio IC50 [9],Ratio IC50 [10],IC50 [12],Ratio IC50 (A2780 [13]),Ratio IC50 [14]
CC(=O)O[C@@]1([C@@H]2/C(C)=C(/O)C(=O)C3=C(C)[C@@H](OC(=O)[C@H](O)[C@H](C=C(C)C)NC(=O)OC(C)(C)C)C[C@@](O)([C@H]2OC(=O)c2cccc(F)c2)C3(C)C)CO[C@@H]1CCO,2220 nM,,,,,,,,3,,24,,,
COc1cccc(C(=O)O[C@H]2[C@H]([C@]3(OC(C)=O)CO[C@@H]3CCO)/C(C)=C(/O)C(=O)C3=C(C)[C@@H](OC(=O)[C@H](O)[C@H](CC(C)C)NC(=O)OC(C)(C)C)C[C@]2(O)C3(C)C)c1,356 nM,6.8 nM,3.5 nM,4.3 nM,1120 nM,2.1,,4.3,3,2.3,24,211 nM,31,
CC(=O)O[C@@]1([C@@H]2/C(C)=C(/O)C(=O)C3=C(C)[C@@H](OC(=O)[C@H](O)[C@H](CC(C)C)NC(=O)OC(C)(C)C)C[C@@](O)([C@H]2OC(=O)c2ccccc2)C3(C)C)CO[C@@H]1CCO,2620 nM,17.4 nM,27.5 nM,16.8 nM,2060 nM,,,,,,,2240 nM,129,8
COc1cccc(C(=O)O[C@H]2[C@H]([C@]3(OC(C)=O)CO[C@@H]3CCO)/C(C)=C(/O)C(=O)C3=C(C)[C@@H](OC(=O)[C@H](O)[C@H](C=C(C)C)NC(=O)OC(C)(C)C)C[C@]2(O)C3(C)C)c1,386 nM,4.6 nM,2.6 nM,5.7 nM,1060 nM,2.1,,4.3,3,2.3,24,490 nM,,

# More lines, main results first:
IC50 (A2780 [1]),IC50 (A2780 [3]),IC50 (A2780 [8]),IC50 (A2780 [11]),Structure (SMILES),IC50 [2],Ratio IC50 (A2780 [4]),Ratio IC50 (A2780 [5]),Ratio IC50 (A2780 [6]),Ratio IC50 [7],Ratio IC50 [9],Ratio IC50 [10],IC50 [12],Ratio IC50 (A2780 [13]),Ratio IC50 [14]
452 nM,4.6 nM,1.7 nM,4 nM,CC(=O)O[C@@]1([C@@H]2/C(C)=C(/O)C(=O)C3=C(C)[C@@H](OC(=O)[C@H](O)[C@H](C=C(C)C)NC(=O)OC(C)(C)C)C[C@@](O)([C@H]2OC(=O)c2cccc(Cl)c2)C3(C)C)CO[C@@H]1CCO,751 nM,2.1,163,4.3,3,2.3,24,357 nM,,
3730 nM,11.1 nM,12.8 nM,11.8 nM,CC(=O)O[C@@]1([C@@H]2/C(C)=C(/O)C(=O)C3=C(C)[C@@H](OC(=O)[C@H](O)[C@H](CC(C)C)NC(=O)OC(C)(C)C)C[C@@](O)([C@H]2OC(=O)c2cccc(F)c2)C3(C)C)CO[C@@H]1CCO,1500 nM,,,,3,2.3,24,460 nM,,
604 nM,5.5 nM,4.6 nM,4.1 nM,CC(=O)O[C@@]1([C@@H]2/C(C)=C(/O)C(=O)C3=C(C)[C@@H](OC(=O)[C@H](O)[C@H](CC(C)C)NC(=O)OC(C)(C)C)C[C@@](O)([C@H]2OC(=O)c2cccc(Cl)c2)C3(C)C)CO[C@@H]1CCO,1800 nM,2.1,,4.3,3,2.3,24,385 nM,,
